The values below come from patent publication US4440769A, “2-(4-Phenylalkanoylpiperazin-1-yl) quinazoline compounds, pharmaceutical compositions and method of producing α1 antagonistic activity” (Abbott Laboratories, priority 1983, dated 1984).

For assay [1], the system named is α1-adrenergic receptor. As to conditions: Federation Proceedings, Vol. 41, No. 5, Abst. No. 7064; cited from earlier work.
Assay [2] has as its system α1-adrenergic receptor. Description: α1-adrenergic receptor selectivity and antagonism (general statements). The settings on record: result in words.
Another assay addresses T1, α2-adrenergic receptor (Rattus norvegicus, UniProt P22909).
T1 sequence (P22909 1-465): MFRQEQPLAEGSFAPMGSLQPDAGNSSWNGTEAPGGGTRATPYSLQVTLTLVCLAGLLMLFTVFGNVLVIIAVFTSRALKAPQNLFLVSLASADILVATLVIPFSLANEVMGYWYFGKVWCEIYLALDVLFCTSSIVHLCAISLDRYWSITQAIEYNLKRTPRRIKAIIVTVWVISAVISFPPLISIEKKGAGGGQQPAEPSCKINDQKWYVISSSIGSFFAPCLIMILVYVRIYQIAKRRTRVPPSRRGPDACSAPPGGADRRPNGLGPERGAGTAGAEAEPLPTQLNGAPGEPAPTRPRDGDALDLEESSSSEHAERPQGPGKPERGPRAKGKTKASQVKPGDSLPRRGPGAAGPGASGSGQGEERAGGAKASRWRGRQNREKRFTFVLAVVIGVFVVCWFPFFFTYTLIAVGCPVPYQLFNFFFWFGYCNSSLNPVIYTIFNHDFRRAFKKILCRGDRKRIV
In words: biochemical. It counts as binding. As to conditions: rat brain cortex, [3H] yohimbine; calculated from IC50.

The subject of the next assay is α-adrenergic receptor. Description: α-adrenergic receptor antagonistic activity in the isolated rabbit aorta (norepinephrine-induced contraction). Format: cell-based. The settings on record: for pA2: norepinephrine agonist, 37±0.5° C., pH 7.4, negative log of concentration requiring doubled norepinephrine. On the procedure:
Female rabbits, weighing 2 to 5 kg., are sacrificed by cervical dislocation. […] The aorta is placed on cylindrical sticks and cleaned of excess fat and connective tissue, then cut into 2 tissue segments approximately 20 mm in length. Each segment of aorta is then spiraled in strips 3.5 mm wide by turning the stick as a scapel is applied, while leaving a section of 2-3 mm at each end of the aorta section intact. The spiraled tissue is mounted in an aerated (as above) tissue bath of 10 ml. of Kreb's buffer and is attached to a Grass force transducer with an initial applied tension of 2 grams. The tissue is allowed to equilibrate in the tissue bath at a temperature of 37±0.5° C. until the tension on the force transducer stabilizes at 2 grams. A cumulative dose-response curve of contraction for the tissue is determined by contacting the tissue with 10 to 400 ul of the standard agonist norepinephrine in log doses of from 1×10^-8 to 1×10^-3M. […] The degree of antagonistic activity is determined by varying the concentration of the test compound and measuring its pA2 value, i.e., the negative log of the concentration of the test compound required to inhibit the norepinephrine response to the extent that the norepinephrine concentration must be doubled to obtain the maximum standard norepinephrine contractile response of the tissue.

Assay [3] concerns the target α1-adrenergic receptor. Description: radioligand binding, displacement of [3H] prazosin in rat brain cortex tissue. The settings on record: for Ki: [3H] prazosin, calculated from IC50; for KIα2/KIα1: ratio of KI values, α1 selectivity.
The test system of assay [4] is spontaneously hypertensive rat (Okamoto rats). Description: arterial blood pressure in the spontaneously hypertensive rat (tail cuff). It counts as in vivo. The settings on record: oral, 30 or 100 mg./kg. The text has this:
An occluding cuff, operatively connected to a programmed sphygmomanometer, is placed over the tail of each rat of the group and retained near the tail base. […] A photocell is placed distal to the cuff to detect pulses resulting from the forward motion of blood flow with each heartbeat of the rat. As the pressure in the cuff increases, measurable pulses disappear at the point where the cuff pressure equals the arterial blood pressure. Measurable pulses reappear during deflation at approximately the same pressure, and arterial blood pressure is thereby established by cuff pressure at the point of pulse appearance. The heart rate is determined from the arterial pulse wave. Doses of 30 or 100 mg./kg. of the preferred compound of Example II are administered orally to each rat of the test groups and five interference-free signals are recorded on a Model 7 Grass polygraph for each rat at various measurement periods following administration.

The Ki is the dissociation constant of the complex between target and ligand, obtained from inhibition or displacement. The term pA2 denotes a measure of antagonist potency on a negative log scale. Read a low pA2 as a weaker antagonist.

Consider `COc1cc2nc(N3CCN(C(=O)c4ccc(N=[N+]=[N-])cc4)CC3)nc(N)c2cc1OC` [2-(4-[4-azido-benzoyl]-piperazin-1-yl)-4-amino-6,7-dimethoxyquinazoline], for which the “α1-adrenergic receptor inhibition upon photolysis” value in the assay on α1-adrenergic receptor [1] was “irreversible non-competitive α1 -adrenergic receptor inhibition”.

In the case of `COc1cc2nc(N3CCN(C(=O)CCCCc4ccc(N=[N+]=[N-])cc4)CC3)nc(N)c2cc1OC` [4-azidophenyl analog, 4-amino-6,7-dimethoxy-2-[4-(5-[4-azidophenyl]pentanoyl)-1-piperazinyl] quinazoline], in the assay on α1-adrenergic receptor [2], the “selectivity for α1-adrenergic receptor sites” value is “high degree of selectivity for α1 -adrenergic receptor sites” and the α1-antagonism result is recorded as “produce α1 -antagonism”.

For the molecule `COc1cc2nc(N3CCN(C(=O)c4ccc(N)cc4)CC3)nc(N)c2cc1OC` [C, 2-(4-[4-aminobenzoyl]piperazin-1-yl)-4-amino-6,7-dimethoxyquinazoline, reference compound], the Ki was 12400 nM at α2-adrenergic receptor and 17 nM at α1-adrenergic receptor [3]. In addition, the pA2 with α-adrenergic receptor is 7.45. For the same molecule, the KIα2/KIα1 in the assay with α1-adrenergic receptor [3] worked out at 730.9.

For the molecule `COc1cc2nc(N3CCN(C(=O)CCCCc4ccc(N)cc4)CC3)nc(N)c2cc1OC.Cl.Cl` [Example II, 4-amino-6,7-dimethoxy-2-[4-(5-[4-aminophenyl]pentanoyl)-1-piperazinyl] quinazoline dihydrochloride], in the assay on α1-adrenergic receptor [2], the “selectivity for α1-adrenergic receptor sites” value is reported as “high degree of selectivity for α1 -adrenergic receptor sites” and the α1-antagonism entry is “produce α1 -antagonism”. For the same molecule, the Ki at α2-adrenergic receptor is 4930 nM. Besides, the pA2 in the assay on α-adrenergic receptor was 7.51. In addition, the “inhibition of increase in contractile force produced by norepinephrine” value with α-adrenergic receptor (result in words) is “inhibited”. On α1-adrenergic receptor [3], the Ki was 4.5 nM and the KIα2/KIα1 is recorded as 1,094.5. For the same molecule, the “decrease of arterial blood pressure” value in assay [4] is reported as “decrease the arterial blood pressure of rats of each group”.

With `COc1cc2nc(N3CCN(C(=O)c4ccco4)CC3)nc(N)c2cc1OC` [prazosin, reference compound], the pA2 in the assay with α-adrenergic receptor is recorded as 8.58.
